# Calls of active or inactive are those of the source. No cut-off for these calls is given here.
# How the values were obtained:
# Hep 3B2 [1] = assay: Induction of apoptosis in human Hep3B cells assessed as necrotic cells at 10 nM incubated for 48 hrs in presence of gamabufotalin by Annexin V-FITC/PI staining based flow cytometry method (reference value: 1.2%); format: functional
# Huh-7 [2] = assay: Induction of autophagic flux in human Huh-7 cells assessed as rescue of LC3-II accumulation at 10 uM incubated for 48 hrs in presence of gamabufotalin by Western blot analysis; format: functional, cell-based
# Huh-7 [3] = assay: Induction of apoptosis in human Huh-7 cells assessed as increase in cleaved caspase-3 level at 10 nM incubated for 48 hrs in presence of gamabufotalin by immunoblot analysis; format: functional, cell-based
# Huh-7 [4] = assay: Induction of apoptosis in human Huh-7 cells assessed as viable cells at 10 nM incubated for 48 hrs by Annexin V-FITC/PI staining based flow cytometry method (reference value: 91.5%); format: functional; settings: read-out: Activity
# Hep 3B2 [5] = assay: Induction of apoptosis in human Hep3B cells assessed as late apoptotic cells at 10 nM incubated for 48 hrs in presence of gamabufotalin by Annexin V-FITC/PI staining based flow cytometry method (reference value: 3.5%); format: functional
# Huh-7 [6] = assay: Induction of autophagy in human Huh-7 cells assessed as rescue of ULK1 phosphorylation level at upto 10 nM incubated for 48 hrs in presence of gamabufotalin by immunoblot method; format: functional, cell-based
# Huh-7 [7] = assay: Induction of apoptosis in human Huh-7 cells assessed as early apoptotic cells at 25 nM incubated for 48 hrs by Annexin V-FITC/PI staining based flow cytometry method (reference value: 1.7%); format: functional
# Hep 3B2 [8] = assay: Antitumor activity against human Hep3B cells xenografted in nude mouse model assessed as upregulation of caspase-3 expression at 5 mg/kg,ip administered every second day for 3 weeks by Western blot analysis; format: functional, organism-based
# Hep 3B2 [9] = assay: Induction of autophagic flux in human Hep3B cells assessed as increase in LC3-I expression at upto 25 nM incubated for 48 hrs by Western blot analysis; format: functional, cell-based
# Hep 3B2 [10] = assay: Induction of autophagy in human Hep3B cells assessed as restoration of ULK1 phosphorylation expression at 25 uM incubated for 48 hrs in presence of 4,6-dimorpholino-N-(4-nitrophenyl)-1,3,5-triazin-2-amine by immunoblot analysis; format: functional, cell-based
# Huh-7 [11] = assay: Induction of apoptosis in human Huh-7 cells assessed as […] in Bax level at upto 25 nM incubated for 48 hrs by Western blot analysis; format: functional, cell-based
# Huh-7 [12] = assay: Induction of apoptosis in human Huh-7 cells assessed as necrotic cells at 25 nM incubated for 48 hrs by Annexin V-FITC/PI staining based flow cytometry method (reference value: 95.4%); format: functional
# Hep 3B2 [13] = assay: Induction of apoptosis in human Hep3B cells assessed as early apoptotic cells at 25 nM measured after 48 hrs by annexin V-FITC/Propidium iodide staining based flow cytometric analysis (reference value: 1.6%); format: functional
# Hep 3B2 [14] = assay: Induction of apoptosis in human Hep3B cells assessed as increase in caspase-3 level at 25 nM incubated for 48 hrs in presence of chloroquine by immunoblot analysis; format: functional, cell-based
# Hep 3B2 [15] = assay: Induction of apoptosis in human Hep3B cells assessed as viable cells at 25 nM incubated for 48 hrs by Annexin V-FITC/PI staining based flow cytometry method (reference value: 94.0%); format: functional; settings: read-out: Activity
# Hep 3B2 [16] = assay: Induction of apoptosis in human Hep3B cells assessed as late apoptotic cells at 25 nM incubated for 48 hrs by Annexin V-FITC/PI staining based flow cytometry method (reference value: 3.5%); format: functional
# Hep 3B2 [17] = assay: Antitumor activity against human Hep3B cells xenografted in nude mouse model assessed as downregulation of m-TOR phosphorylation expression expression at 5 mg/kg,ip administered every second day for 3 weeks by Western blot analysis; format: functional, organism-based
# Huh-7 [18] = assay: Induction of apoptosis in human Huh-7 cells assessed as increase in cleaved caspase-3 level at 25 nM incubated for 48 hrs in presence of chloroquine by immunoblot analysis; format: functional, cell-based
# Hep 3B2 [19] = assay: Antitumor activity against human Hep3B cells xenografted in nude mouse model assessed as upregulation of bax expression at 5 mg/kg,ip administered every second day for 3 weeks by Western blot analysis; format: functional, organism-based
# Huh-7 [20] = assay: Induction of autophagy in human Huh-7 cells assessed as reduction in ULK1 phosphorylation level incubated for 48 hrs by immunoblot method; format: functional, cell-based; settings: dose 0-25 nM
# Huh-7 [21] = assay: Induction of autophagic flux in human Huh-7 cells assessed as increase in high electron density vesicles at 25 nM incubated for 48 hrs by transmission electron microscopic analysis; format: functional, cell-based
# Huh-7 [22] = assay: Induction of apoptosis in human Huh-7 cells assessed as condensed nuclei at upto 25 uM incubated for 48 hrs by Hoechst33258 staining based fluorescence microscopy; format: functional, cell-based
# Hep 3B2 [23] = assay: Induction of apoptosis in human Hep3B cells assessed as […] expression at upto 25 nM incubated for 48 hrs by Western blot analysis; format: functional, cell-based
# Hep 3B2 [24] = assay: Induction of apoptosis in human Hep3B cells assessed as viable cells at 25 nM incubated for 48 hrs by Annexin V-FITC/PI staining based flow cytometry method (Rvb =95.7%); format: functional; settings: read-out: Activity
# Hep 3B2 [25] = assay: Induction of autophagy in human Hep3B cells assessed as downregulation of LC3II/LC3I ratio at 25 uM incubated for 48 hrs in presence of 4,6-dimorpholino-N-(4-nitrophenyl)-1,3,5-triazin-2-amine by immunoblot analysis; format: functional, cell-based
# Hep 3B2 [26] = assay: Induction of apoptosis in human Hep3B cells assessed as early apoptotic cells at 25 nM measured after 48 hrs in presence of Z-VAD-FMK by annexin V-FITC/Propidium iodide staining based flow cytometric analysis (reference value: 1.6%); format: functional
# Hep 3B2 [27] = assay: Induction of apoptosis in human Hep3B cells assessed as necrotic cells at 25 nM measured after 48 hrs by annexin V-FITC/Propidium iodide staining based flow cytometric analysis (reference value: 0.3%); format: functional
# Huh-7 [28] = assay: Induction of apoptosis in human Huh-7 cells assessed as increase in caspase-3 level at 25 nM incubated for 48 hrs in presence of chloroquine by immunoblot analysis; format: functional, cell-based
# Huh-7 [29] = assay: Induction of autophagic flux in human Huh-7 cells assessed as rescue of LC3-II accumulation at 25 uM incubated for 48 hrs in presence of chloroquine by Western blot analysis; format: functional, cell-based
# Hep 3B2 [30] = assay: Induction of apoptosis in human Hep3B cells assessed as necrotic cells at 25 nM measured after 48 hrs in presence of Z-VAD-FMK by annexin V-FITC/Propidium iodide staining based flow cytometric analysis (reference value: 0.3%); format: functional
# Huh-7 [31] = assay: Induction of apoptosis in human Huh-7 cells assessed as reduction in bcl-2 level […] incubated for 48 hrs in presence of 4,6-dimorpholino-N-(4-nitrophenyl)-1,3,5-triazin-2-amine by immunoblot analysis; format: functional, cell-based
# Huh-7 [32] = assay: Antiproliferative activity against human Huh-7 cells assessed as cell viability incubated for 24 hrs by CCK-8; format: functional, cell-based; settings: Huh-7, 24 h
# Hep 3B2 [33] = assay: Antitumor activity against human Hep3B cells xenografted in nude mouse model assessed as upregulation of LC3 II expression at 5 mg/kg,ip administered every second day for 3 weeks by Western blot analysis; format: functional, organism-based
# Huh-7 [34] = assay: Induction of autophagy in human Huh-7 cells assessed as rescue of mTOR phosphorylation level at upto 25 nM incubated for 48 hrs in presence of chloroquine by immunoblot method; format: functional, cell-based
compound,measurement,setting,value
CCN(CC)CCCC(C)Nc1ccnc2cc(Cl)ccc12 (centres undefined) [CHLOROQUINE],Activity,Hep 3B2 [1],0.8%
same,Activity,Huh-7 [2],Active
same,Activity,Huh-7 [3],Active
same,viability at 0.01 µM,Huh-7 [4],90.3%
same,Activity,Hep 3B2 [5],17.4%
same,Activity,Huh-7 [6],Active
C[C@]12CC[C@H](O)C[C@H]1CC[C@@H]1[C@@H]2[C@H](O)C[C@]2(C)[C@@H](c3ccc(=O)oc3)CC[C@]12O [GAMABUFOTALIN],Activity,Huh-7 [7],5.6%
same,Activity,Hep 3B2 [8],Active
same,Activity,Hep 3B2 [9],Active
same,Activity,Hep 3B2 [10],Active
same,Activity,Huh-7 [11],Active
same,Activity,Huh-7 [12],57.1%
same,Activity,Hep 3B2 [13],6.6%
same,Activity,Hep 3B2 [14],Active
same,viability at 0.025 µM,Hep 3B2 [15],71.4%
same,Activity,Hep 3B2 [16],13.7%
same,Activity,Hep 3B2 [17],Active
same,Activity,Huh-7 [18],Active
same,Activity,Hep 3B2 [19],Active
same,Activity,Huh-7 [20],Dose-Dependent Effect
same,Activity,Huh-7 [21],Active
same,Activity,Huh-7 [22],Active
same,Activity,Hep 3B2 [23],Active
same,viability at 0.025 µM,Hep 3B2 [24],77.2%
same,Activity,Hep 3B2 [25],Active
same,Activity,Hep 3B2 [26],4.4%
same,Activity,Hep 3B2 [27],0.6%
same,Activity,Huh-7 [28],Active
same,Activity,Huh-7 [29],Active
same,Activity,Hep 3B2 [30],0.3%
same,Activity,Huh-7 [31],Active
same,IC50,Huh-7 [32],23 nM
same,Activity,Hep 3B2 [33],Active
same,Activity,Huh-7 [34],Active

# Reference: ChEMBL document CHEMBL5257089, “Gamabufotalin Induces Apoptosis and Cytoprotective Autophagy through the mTOR Signaling Pathway in Hepatocellular Carcinoma” (J Nat Prod, 2023)
